Measured values: patent US4808588A, “Heterocyclic ureas and carbonates useful as pharmaceuticals” (Beecham Group, p.l.c., priority 1986, dated 1989)

These compounds were tested on von Bezold-Jarisch reflex evoked by 5-HT (assay: Antagonism of the von Bezold-Jarisch reflex evoked by 5-HT in the anaesthetised rat). Conditions: anaesthetised male rats, compound intravenous, 5-HT usually 6 μg/kg i.v., heart rate changes, read-out: ED50 (concentration required to reduce the 5-HT-evoked response to 50% of the control response).
Type: in vivo
Experimental: Antagonism of the von Bezold-Jarisch reflex
The compounds were evaluated for antagonism of the von Bezold-Jarisch reflex evoked by 5-HT in the anaesthetised rat according to the following method:
Male rats 250-350 g, were anaesthetised with urethane (1.25 g/kg intraperitoneally) and blood pressure and heart rate recorded as described by Fozard J. R. et al., J. Cardiovasc. Pharmacol. 2, 229-245 (1980). A submaximal dose of 5-HT (usually 6 μg/kg) was given repeatedly by the intravenous route and changes in heart rate quantified. Compounds were given intravenously and the concentration required to reduce the 5-HT-evoked response to 50% of the control response (ED50) was then determined.

Row | SMILES | ED50 [µg/kg]
1 | COc1ncccc1NC(=O)N[C@H]1C[C@H]2CC[C@@H](C1)N2C [Compound 1, (endo)-N-(8-Methyl-8-azabicyclo[3.2.1]oct-3-yl)-N'-(2-methoxy-pyrid-3-yl)urea] | 7.5
2 | COc1ccsc1NC(=O)N[C@H]1C[C@H]2CC[C@@H](C1)N2C [Compound 3, (endo)-N-(8-Methyl-8-azabicyclo[3,2,1]oct-3-yl)-N'-(3-methoxythiophen-2-yl)urea] | 1
3 | COc1cscc1NC(=O)N[C@H]1C[C@H]2CC[C@@H](C1)N2C [Compound 5, (endo)-N-(8-Methyl-8-azabicyclo[3,2,1]oct-3-yl)-N'-(4-methoxythiophen-3-yl)urea] | 2
